{
  "source": "patent US20230310431A1",
  "about": "“COMPOSITION FOR PREVENTING OR TREATING LIVER FIBROSIS, CONTAINING TRIAZOLE DERIVATIVE AS ACTIVE INGREDIENT” (INDUSTRY-ACADEMIC COOPERATION FOUNDTION, YONSEI UNIVERSITY, priority 2020, published 2023)",
  "key": {"fatty liver mouse model [1]": {"test_system": "fatty liver mouse model", "assay": "Measurement of liver function indicators (AST, ALT) in blood", "format": "in vivo, C57BL/6 mice", "conditions": "high-fat diet group, 50 mg/kg oral twice a week for 7 weeks, versus vehicle-administered control group, FIG. 4", "method": "(§1) Twenty-four 6-week-old C57BL/6 mice were acclimated for 1 week and then divided into two groups. One group (12 mice) was fed a normal diet, and the other group (12 mice) was fed a high-fat diet for 9 weeks. After 9 weeks, each of the normal diet group and the high-fat diet group was subdivided into two groups, and each of vehicle and 50 mg/kg of ML323 was orally administered thereto twice a week for 7 weeks. Normal diet and high-fat diet were continued during oral administration.\nAfter the experimental period was over, blood was collected from each mouse, and after 30 minutes, the supernatant (plasma) was separated from the blood by centrifugation at 2,000 rpm for 15 minutes. The separated plasma was analyzed by Seoul Clinical Laboratories (SCL) to measure the levels of AST and ALT, which are indicators of liver function."}, "fatty liver mouse model [2]": {"test_system": "fatty liver mouse model", "assay": "Measurement of liver weight change in fatty liver mouse model", "format": "in vivo, C57BL/6 mice", "conditions": "50 mg/kg oral twice a week for 7 weeks, FIG. 3", "method": "as §1\nAfter the experimental period was over, mice were sacrificed, and liver tissues were harvested and weighed."}, "F4/80": {"test_system": "F4/80", "assay": "Expression of inflammatory factors in liver tissue (real-time PCR): F4/80", "format": "in vivo, C57BL/6 mice", "conditions": "high-fat diet group, 50 mg/kg oral, versus control group, FIG. 5B", "method": "as §1\n(§2) The tissue harvested from each mouse was added to 1 ml of Easy blue (Intron) and then minced using a homogenizer. 200 μl of chloroform was added to and mixed well with the tissue, and the mixture was incubated for 3 minutes and then centrifuged at 13,200 rpm for 15 minutes at 4° C. After centrifugation, only the supernatant was transferred to a fresh tube, and the same amount of isopropyl alcohol was added thereto and mixed well therewith. After incubation for 10 minutes, centrifugation was performed at 13,200 rpm for 10 minutes at 4° C. After removing the supernatant, the RNA pellet was washed with 70% ethanol and centrifuged at 13,200 rpm for 5 minutes at 4° C. […]\n(§3) cDNA was synthesized from the extracted RNA using ReverTraAce RT master mix (TOYOBO), and then gene expression changes were measured using a real-time PCR system (ABI)."}, "COL1A1 [3]": {"test_system": "COL1A1", "assay": "Expression of hepatic fibrosis inducers in liver tissue (real-time PCR): COL1A1", "format": "in vivo, C57BL/6 mice", "conditions": "high-fat diet group, 50 mg/kg oral, FIG. 5A", "method": "as §1, §2, §3"}, "[4]": {"test_system": "Human hepatic stellate LX-2 cells", "assay": "Cytotoxicity measurement (WST assay)", "format": "cell-based", "conditions": "48 hours", "method": "Human hepatic stellate LX-2 cells were seeded in a 96-well plate with DMEM (Welgene) containing 2% fetal bovine serum (Gibco) and 1% penicillin-streptomycin (Gibco), and cultured in an incubator for 24 hours at 37° C. under 5% CO2. Next, the cells were treated with ML323 at concentrations of 0, 1, 5, 10 and 25 μM. After 48 hours, 10 μl of EZ-Cytox was added to the cell culture medium and reacted for 30 minutes, and the absorbance at 450 nm was measured using a microplate reader.\nCytotoxicity measurement (WST assay)"}, "CDAA diet mice": {"test_system": "CDAA diet mice", "assay": "Immunohistochemical analysis of liver tissue (H&E, F4/80, a-SMA), CDAA diet non-alcoholic fatty liver model", "format": "in vivo, C57BL/6 mice", "conditions": "CDAA diet group, 50 mg/kg oral, FIG. 7", "method": "In addition, ten 6-week-old C57BL/6 mice were acclimated for 1 week and then fed CDAA (choline-deficient L-amino-defined) for 8 weeks to induce non-alcoholic fatty liver. Thereafter, the 10 mice were divided into two groups, to which a vehicle and 50 mg/kg of ML-323 were orally administered, respectively, and then liver tissues were stained with H&E, F4/80, and a-SMA."}, "CCL2": {"test_system": "CCL2", "assay": "Expression of inflammatory factors in liver tissue (real-time PCR): CCL2", "format": "in vivo, C57BL/6 mice", "conditions": "high-fat diet group, 50 mg/kg oral, versus control group, FIG. 5B", "method": "as §1, §2, §3"}, "COL1A1 [5]": {"test_system": "COL1A1", "assay": "Measurement of cell fibrosis: COL1A1 mRNA in TGF-β-activated LX-2 cells", "format": "cell-based, Human", "conditions": "TGF-β 2.5 ng/ml, ML323 1, 10, 25 μM, 24 hours, versus cells not treated with ML323, FIG. 2", "method": "Human hepatic stellate LX-2 cells were seeded in a 6-well plate with DMEM (Welgene) containing 2% fetal bovine serum (Gibco) and 1% penicillin-streptomycin (Gibco), and cultured in an incubator for 24 hours at 37° C. under 5% CO2. Thereafter, the medium was replaced with serum-free DMEM, and the cells were starved for 24 hours. Next, the cells were activated by treatment with TGF-β at a concentration of 2.5 ng/ml, and at the same time, the cells were treated with ML323 at concentrations of 0, 1, 10 and 25 μM. After 24 hours, the cells were harvested and used for gene expression analysis.\nas §3"}, "fatty liver mouse model [6]": {"test_system": "fatty liver mouse model", "assay": "Immunohistochemical analysis of liver tissue (Sirius red, a-SMA), fatty liver mouse model", "format": "in vivo, C57BL/6 mice", "conditions": "50 mg/kg oral, FIG. 6", "method": "as §1\nThe liver tissue harvested from each mouse was fixed in a 10% formalin solution, and a paraffin block and a slide were prepared using each liver tissue that had been fixed. The degree of fibrosis in liver tissue was measured using Sirius red solution staining and a-SMA immunostaining."}, "TGF-β": {"test_system": "TGF-β", "assay": "Expression of inflammatory factors in liver tissue (real-time PCR): TGF-β", "format": "in vivo, C57BL/6 mice", "conditions": "high-fat diet group, 50 mg/kg oral, versus control group, FIG. 5B", "method": "as §1, §2, §3"}},
  "data": [
    {"molecule": "Cc1cnc(-c2ccccc2C(C)C)nc1NCc1ccc(-n2ccnn2)cc1", "note": "[ML323, N-(4-(1H-1,2,3-triazol-1-yl)benzyl)-2-(24 sopropylphenyl)-5-methylpyrimidin-4-amine]", "values": [
      {"measurement": "decrease of ALT level in the blood", "setting": "fatty liver mouse model [1]", "result": 70, "unit": "%"},
      {"measurement": "decrease of AST level in the blood", "setting": "fatty liver mouse model [1]", "result": 40, "unit": "%"},
      {"measurement": "liver weight", "setting": "fatty liver mouse model [2]; high-fat diet group", "result": "decreased"},
      {"measurement": "accumulation of fat in liver tissue", "setting": "fatty liver mouse model [2]; high-fat diet group, versus control group", "result": "significantly decreased"},
      {"measurement": "liver weight or size", "setting": "fatty liver mouse model [2]; normal diet group, versus control group", "result": "no significant difference in liver weight or size"},
      {"measurement": "mRNA expression level of F4/80 in liver tissue", "setting": "F4/80", "result": "significantly decreased"},
      {"measurement": "mRNA expression level of the COL1A1 gene in liver tissue", "setting": "COL1A1 [3]", "result": "greatly decreased"},
      {"measurement": "viability of LX-2 cells versus untreated cells", "setting": "[4]; 0, 1, 5, 10 and 25 μM, FIG. 1", "result": "no significant difference in viability"},
      {"measurement": "cytotoxicity", "setting": "[4]; all treatment concentrations (up to 25 μM)", "result": "did not exhibit cytotoxicity"},
      {"measurement": "inflammation and hepatic fibrosis in liver tissue (H&E staining, f4/80 and a-SMA immunostaining)", "setting": "CDAA diet mice", "result": "significantly decreased"},
      {"measurement": "mRNA expression level of CCL2 in liver tissue", "setting": "CCL2", "result": "significantly decreased"},
      {"measurement": "mRNA expression of COL1A1", "setting": "COL1A1 [5]", "result": "significantly lower"},
      {"measurement": "hepatic fibrosis in liver tissue (Sirius red staining and a-SMA immunostaining)", "setting": "fatty liver mouse model [6]", "result": "significantly decreased"},
      {"measurement": "mRNA expression level of TGF-β in liver tissue", "setting": "TGF-β", "result": "significantly decreased"}
    ]}
  ]
}
